The source made the active and inactive calls.
Experiments:
[1] = molecular target: T1, Replicative DNA helicase DnaB (Mycobacterium tuberculosis, UniProt P9WMR3); experiment: DnaB intein splicing inhibitors, dose response, biochemical, cell-free fluorescence (AID 449749); format: functional
T1 sequence (P9WMR3 whole entry): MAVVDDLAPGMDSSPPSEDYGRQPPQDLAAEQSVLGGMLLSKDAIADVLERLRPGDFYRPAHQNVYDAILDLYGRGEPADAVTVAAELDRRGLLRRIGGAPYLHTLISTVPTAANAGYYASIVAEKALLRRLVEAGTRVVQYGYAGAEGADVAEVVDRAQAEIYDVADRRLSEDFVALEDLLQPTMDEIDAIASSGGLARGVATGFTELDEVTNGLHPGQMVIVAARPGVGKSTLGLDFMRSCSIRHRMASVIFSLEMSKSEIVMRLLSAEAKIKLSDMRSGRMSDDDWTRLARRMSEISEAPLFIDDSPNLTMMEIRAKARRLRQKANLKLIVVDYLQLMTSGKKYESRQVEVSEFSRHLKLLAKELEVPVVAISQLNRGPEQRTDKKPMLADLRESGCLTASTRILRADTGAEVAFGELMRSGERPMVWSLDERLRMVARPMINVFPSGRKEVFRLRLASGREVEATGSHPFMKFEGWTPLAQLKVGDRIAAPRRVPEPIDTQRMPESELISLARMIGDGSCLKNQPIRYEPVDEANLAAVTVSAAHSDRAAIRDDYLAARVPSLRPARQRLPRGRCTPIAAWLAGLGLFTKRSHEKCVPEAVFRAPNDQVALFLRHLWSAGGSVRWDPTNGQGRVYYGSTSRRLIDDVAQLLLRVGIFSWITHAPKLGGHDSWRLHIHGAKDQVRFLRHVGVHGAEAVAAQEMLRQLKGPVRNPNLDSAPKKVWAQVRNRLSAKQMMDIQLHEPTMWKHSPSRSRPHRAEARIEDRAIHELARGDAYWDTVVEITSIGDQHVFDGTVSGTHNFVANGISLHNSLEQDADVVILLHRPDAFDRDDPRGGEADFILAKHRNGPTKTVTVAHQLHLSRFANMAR

Protein RecA = molecular target: T2, Protein RecA (Mycobacterium tuberculosis, UniProt P9WHJ3); experiment: Fluorescence Cell-Free Homogeneous Dose Retest to Identify Inhibitors of RecA-Intein Splicing Activity. [Related pubchem assays (depositor defined):AID2097, AID2223, AID489010, AID492950]; format: functional
T2 sequence (P9WHJ3 whole entry): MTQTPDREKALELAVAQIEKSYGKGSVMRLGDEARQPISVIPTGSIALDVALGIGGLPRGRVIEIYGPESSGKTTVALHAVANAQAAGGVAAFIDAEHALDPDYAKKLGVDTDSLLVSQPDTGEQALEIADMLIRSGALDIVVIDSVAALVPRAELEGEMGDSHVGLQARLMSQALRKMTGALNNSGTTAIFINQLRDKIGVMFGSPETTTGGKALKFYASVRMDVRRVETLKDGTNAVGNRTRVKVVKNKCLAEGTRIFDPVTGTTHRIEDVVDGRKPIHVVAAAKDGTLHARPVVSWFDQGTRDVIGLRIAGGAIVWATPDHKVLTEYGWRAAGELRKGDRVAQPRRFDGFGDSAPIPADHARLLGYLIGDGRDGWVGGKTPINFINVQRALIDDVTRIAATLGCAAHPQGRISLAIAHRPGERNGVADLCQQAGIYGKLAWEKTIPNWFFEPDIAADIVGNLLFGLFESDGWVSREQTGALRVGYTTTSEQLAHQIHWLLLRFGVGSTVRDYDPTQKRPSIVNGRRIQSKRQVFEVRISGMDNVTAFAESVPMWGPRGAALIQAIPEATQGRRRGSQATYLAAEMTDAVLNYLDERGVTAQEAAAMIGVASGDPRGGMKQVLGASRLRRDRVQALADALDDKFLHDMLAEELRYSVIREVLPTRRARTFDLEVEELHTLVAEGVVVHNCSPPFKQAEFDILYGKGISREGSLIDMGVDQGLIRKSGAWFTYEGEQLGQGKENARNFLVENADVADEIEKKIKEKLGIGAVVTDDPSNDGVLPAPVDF

[2] = ADAM10 inhibitors, peptide cleavage, dose response, biochemical, QFRET (AID 743254);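 also: ADAM10 enzyme with the DM2 quenched FRET peptide as substrate; EDANS fluorescence gain as the protease cuts the substrate; inhibitor potency against ADAM10 proteolytic activity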
[3] = molecular target: Disintegrin and metalloproteinase domain-containing protein 17 (Homo sapiens, UniProt P78536); experiment: ADAM17 protease inhibitors, dose response, counter-screen for ADAM10 exosite inhibitor project, biochemical, quenched FRET substrate (AID 743253)
[4] = molecular target: T3, Oxysterols receptor LXR-beta (Homo sapiens, UniProt P55055); format: functional, cell-based;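 also: agonist activity at LXR measured by a cell-based luminescence readout across a dose range, run as a counterscreen for daf-12 agonists; HEK293 cells with Gal4-LXR fusion and GAL4-driven luciferase reporter; potency for activation of Gal4-LXR reporter so compounds are agonists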
T3 sequence (P55055 whole entry): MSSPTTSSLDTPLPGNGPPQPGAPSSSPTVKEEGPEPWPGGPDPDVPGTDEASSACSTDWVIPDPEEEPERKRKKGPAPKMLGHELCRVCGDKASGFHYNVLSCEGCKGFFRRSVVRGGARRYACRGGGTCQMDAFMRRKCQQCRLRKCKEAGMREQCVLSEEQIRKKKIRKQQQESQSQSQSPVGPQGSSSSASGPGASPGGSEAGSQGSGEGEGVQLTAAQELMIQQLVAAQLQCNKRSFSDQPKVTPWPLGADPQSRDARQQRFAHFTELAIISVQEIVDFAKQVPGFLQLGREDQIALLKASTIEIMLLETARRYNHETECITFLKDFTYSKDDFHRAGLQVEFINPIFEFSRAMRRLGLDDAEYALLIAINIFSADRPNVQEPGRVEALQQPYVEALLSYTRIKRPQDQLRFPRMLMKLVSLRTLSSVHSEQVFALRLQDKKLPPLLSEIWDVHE

Protein Wnt-3a = Protein Wnt-3a (Mus musculus, UniProt P27467); experiment: SAR analysis of small molecule antagonists of Gli-SUFU in a Wnt3a luminescent reporter assay.; format: functional
Protein skinhead-1 = molecular target: T4, Protein skinhead-1 (Caenorhabditis elegans, UniProt P34707); format: functional
T4 sequence (P34707 whole entry): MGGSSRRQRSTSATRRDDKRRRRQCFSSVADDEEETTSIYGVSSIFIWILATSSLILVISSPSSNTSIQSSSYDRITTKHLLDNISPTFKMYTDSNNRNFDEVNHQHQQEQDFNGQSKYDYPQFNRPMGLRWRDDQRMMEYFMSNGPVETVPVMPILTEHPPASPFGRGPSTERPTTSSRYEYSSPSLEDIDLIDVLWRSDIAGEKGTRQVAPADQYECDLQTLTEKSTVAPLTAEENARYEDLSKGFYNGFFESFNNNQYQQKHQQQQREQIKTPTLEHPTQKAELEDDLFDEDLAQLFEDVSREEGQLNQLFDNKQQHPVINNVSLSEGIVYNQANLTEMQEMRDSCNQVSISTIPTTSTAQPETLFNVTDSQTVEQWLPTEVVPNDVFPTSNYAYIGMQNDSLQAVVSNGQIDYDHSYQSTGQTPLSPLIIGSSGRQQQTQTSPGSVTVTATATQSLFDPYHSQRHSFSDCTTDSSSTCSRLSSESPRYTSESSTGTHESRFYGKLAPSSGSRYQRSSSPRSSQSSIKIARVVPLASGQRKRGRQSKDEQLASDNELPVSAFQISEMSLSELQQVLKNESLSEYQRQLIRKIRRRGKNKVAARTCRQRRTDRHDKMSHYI

HEK293 = experiment: HEK293T cell cytotoxicity, dose response, cytotoxicity control, ATP luminescence, cherry-pick samples (AID 687005); format: functional, cell-based; settings: Homo sapiens;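 also: cells exposed to compound for 48 hours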
[5] = HEK293 Cytotoxicity Assay Measured in Cell-Based System Using Plate Reader - 7071-01_Inhibitor_Dose_CherryPick_Activity_Set2.; format: functional
[6] = MITF Orthogonal Assay: SK-MEL-5 CTG Assay Measured in Cell-Based System Using Plate Reader - 2084-02_Inhibitor_Dose_DryPowder_Activity_Set7.; format: functional
[7] = MITF: Counter assay: A375 proliferation Measured in Cell-Based System Using Plate Reader - 2084-03_Inhibitor_Dose_DryPowder_Activity_Set8.; format: functional; settings: A-375
[8] = TRPM1 promoter luciferase reporter signal decrease, dose response, MITF inhibitor project, cell-based, SK-MEL-5, dry powder, set 8 (AID 624430); format: functional
Cysteine protease ATG4B = molecular target: T5, Cysteine protease ATG4B (Homo sapiens, UniProt Q9Y4P1); format: functional;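 also: Fluorescence-based dose-response confirmation assay measuring inhibition of ATG4B activity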
T5 sequence (Q9Y4P1 whole entry): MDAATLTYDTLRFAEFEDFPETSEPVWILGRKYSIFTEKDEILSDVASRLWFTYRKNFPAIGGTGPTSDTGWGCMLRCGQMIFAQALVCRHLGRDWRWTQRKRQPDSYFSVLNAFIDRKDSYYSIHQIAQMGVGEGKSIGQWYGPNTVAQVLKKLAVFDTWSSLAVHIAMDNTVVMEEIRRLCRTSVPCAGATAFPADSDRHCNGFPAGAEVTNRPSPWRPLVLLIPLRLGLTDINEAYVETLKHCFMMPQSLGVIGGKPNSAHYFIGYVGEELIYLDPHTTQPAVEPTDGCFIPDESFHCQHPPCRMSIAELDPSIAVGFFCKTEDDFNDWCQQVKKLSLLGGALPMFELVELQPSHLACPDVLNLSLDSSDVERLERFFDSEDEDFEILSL

Phospholipase A2 = Phospholipase A2 (Homo sapiens, UniProt P04054); format: functional;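 also: confirmatory dose-response counterscreen on phospholipase A2, testing hits that came from an ultra-high-throughput screen for ATG4B inhibitors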
[9] = molecular target: T6, Carboxy-terminal domain RNA polymerase II polypeptide A small phosphatase 1 (Homo sapiens, UniProt Q9GZU7); experiment: inhibitors of CTDSP1, concentration-response testing, biochemical assay, absorbance-based, actives from ultra-high-throughput screening (AID 540297); format: functional
T6 sequence (Q9GZU7 whole entry): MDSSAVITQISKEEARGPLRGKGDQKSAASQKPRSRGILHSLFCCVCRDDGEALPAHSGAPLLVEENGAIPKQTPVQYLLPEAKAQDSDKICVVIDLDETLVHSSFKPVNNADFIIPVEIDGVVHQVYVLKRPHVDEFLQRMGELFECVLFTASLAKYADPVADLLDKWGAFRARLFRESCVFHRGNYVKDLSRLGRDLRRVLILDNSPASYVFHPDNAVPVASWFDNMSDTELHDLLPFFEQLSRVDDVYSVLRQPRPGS

Caspase-6 = molecular target: T7, Caspase-6 (Homo sapiens, UniProt P55212); experiment: human caspase-6 inhibitors, dose response, biochemical, VEID-R110 fluorescence, cherry-pick (AID 720632)
T7 sequence (P55212 whole entry): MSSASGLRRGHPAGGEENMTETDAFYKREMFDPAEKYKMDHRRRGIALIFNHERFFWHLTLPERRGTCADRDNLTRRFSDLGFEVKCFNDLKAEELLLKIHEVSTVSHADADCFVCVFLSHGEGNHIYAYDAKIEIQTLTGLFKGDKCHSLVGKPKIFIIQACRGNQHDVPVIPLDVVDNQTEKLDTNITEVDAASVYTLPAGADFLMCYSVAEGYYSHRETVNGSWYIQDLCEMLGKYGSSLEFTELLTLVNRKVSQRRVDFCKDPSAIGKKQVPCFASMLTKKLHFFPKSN

Caspase-7 = molecular target: T8, Caspase-7 (Homo sapiens, UniProt P55210); experiment: human caspase-7 inhibitors, dose response, selectivity assay for caspase-6 inhibitor project, biochemical, DEVD-R110 fluorescence, cherry-pick (AID 743295)
T8 sequence (P55210 whole entry): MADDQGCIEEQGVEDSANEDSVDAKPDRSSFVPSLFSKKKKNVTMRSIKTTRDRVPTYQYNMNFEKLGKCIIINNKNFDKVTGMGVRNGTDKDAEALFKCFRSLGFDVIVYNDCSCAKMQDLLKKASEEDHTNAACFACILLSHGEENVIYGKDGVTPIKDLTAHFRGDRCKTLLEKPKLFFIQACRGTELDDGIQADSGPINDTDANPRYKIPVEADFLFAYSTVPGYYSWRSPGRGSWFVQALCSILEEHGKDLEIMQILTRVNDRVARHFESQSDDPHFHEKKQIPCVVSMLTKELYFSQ

Caspase-8 = Caspase-8 (Homo sapiens, UniProt Q14790); experiment: caspase-8 inhibition counter-screen, dose response, selectivity assay for caspase-6 inhibitor project, biochemical, Z-IETD-R110 fluorescence, cherry-picked samples (AID 743294)
Caspase-3 = molecular target: T9, Caspase-3 (Homo sapiens, UniProt P42574); experiment: caspase-3 enzyme inhibitors, selectivity check, dose response, selectivity assay for caspase-6 allosteric inhibitor project, biochemical, fluorescence, cherry-picked samples (AID 743291)
T9 sequence (P42574 whole entry): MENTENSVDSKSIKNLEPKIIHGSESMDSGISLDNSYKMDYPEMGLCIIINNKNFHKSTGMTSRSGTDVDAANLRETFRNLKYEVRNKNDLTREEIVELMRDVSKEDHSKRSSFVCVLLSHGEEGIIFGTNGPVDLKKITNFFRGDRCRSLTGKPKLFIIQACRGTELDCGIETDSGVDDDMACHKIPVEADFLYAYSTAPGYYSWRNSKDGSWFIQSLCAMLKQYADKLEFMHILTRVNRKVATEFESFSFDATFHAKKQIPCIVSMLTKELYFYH

[10] = HEK293T cytotoxicity, dose response, cytotoxicity control for miR-122 modulator project, cell-based, inhibitor set, cherry-pick, set 2 (AID 720697); format: functional

Sequence of Disintegrin and metalloproteinase domain-containing protein 17 (P78536 whole entry, the tested form may be a part): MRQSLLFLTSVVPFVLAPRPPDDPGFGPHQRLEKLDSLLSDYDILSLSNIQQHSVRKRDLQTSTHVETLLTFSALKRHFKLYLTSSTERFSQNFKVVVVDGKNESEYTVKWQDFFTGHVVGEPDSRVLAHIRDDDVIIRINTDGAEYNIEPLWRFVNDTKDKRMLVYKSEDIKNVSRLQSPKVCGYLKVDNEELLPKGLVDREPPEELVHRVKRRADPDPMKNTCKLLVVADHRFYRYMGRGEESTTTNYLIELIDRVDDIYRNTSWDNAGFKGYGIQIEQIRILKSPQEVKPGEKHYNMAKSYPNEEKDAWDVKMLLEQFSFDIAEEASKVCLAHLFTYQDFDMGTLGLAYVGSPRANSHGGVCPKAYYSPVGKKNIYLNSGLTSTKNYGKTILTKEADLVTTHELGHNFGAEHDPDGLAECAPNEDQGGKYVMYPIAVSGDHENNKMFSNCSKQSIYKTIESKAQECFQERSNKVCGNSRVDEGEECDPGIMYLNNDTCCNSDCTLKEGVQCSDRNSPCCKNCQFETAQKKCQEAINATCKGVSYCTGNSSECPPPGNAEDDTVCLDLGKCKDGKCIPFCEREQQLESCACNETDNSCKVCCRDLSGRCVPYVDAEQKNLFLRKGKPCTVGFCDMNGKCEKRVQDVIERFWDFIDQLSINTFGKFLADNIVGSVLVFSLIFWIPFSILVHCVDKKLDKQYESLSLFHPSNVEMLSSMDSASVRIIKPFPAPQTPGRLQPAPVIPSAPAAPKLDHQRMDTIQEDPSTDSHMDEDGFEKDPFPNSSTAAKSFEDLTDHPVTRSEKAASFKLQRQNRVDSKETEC
Sequence of Protein Wnt-3a (P27467 whole entry): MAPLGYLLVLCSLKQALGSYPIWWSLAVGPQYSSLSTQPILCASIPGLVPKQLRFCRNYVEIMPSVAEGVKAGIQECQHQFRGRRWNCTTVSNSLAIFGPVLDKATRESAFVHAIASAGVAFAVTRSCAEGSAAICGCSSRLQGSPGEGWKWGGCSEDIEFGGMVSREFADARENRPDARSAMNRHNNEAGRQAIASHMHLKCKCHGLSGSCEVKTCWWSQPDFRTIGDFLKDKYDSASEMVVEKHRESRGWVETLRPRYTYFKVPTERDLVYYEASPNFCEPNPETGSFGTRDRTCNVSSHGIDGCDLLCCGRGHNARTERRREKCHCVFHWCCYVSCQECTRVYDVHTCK
Sequence of Caspase-8 (Q14790 217-374 limits assumed): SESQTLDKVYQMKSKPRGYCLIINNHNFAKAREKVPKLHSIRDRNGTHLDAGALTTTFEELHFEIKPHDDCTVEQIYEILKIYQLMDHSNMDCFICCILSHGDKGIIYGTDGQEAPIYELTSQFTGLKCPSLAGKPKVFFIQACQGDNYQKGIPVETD
Sequence of Caspase-8 (Q14790 385-479 limits assumed): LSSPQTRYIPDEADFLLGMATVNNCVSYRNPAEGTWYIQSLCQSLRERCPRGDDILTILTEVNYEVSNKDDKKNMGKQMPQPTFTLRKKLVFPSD
Sequence of Phospholipase A2 (P04054 whole entry, the tested form may be a part): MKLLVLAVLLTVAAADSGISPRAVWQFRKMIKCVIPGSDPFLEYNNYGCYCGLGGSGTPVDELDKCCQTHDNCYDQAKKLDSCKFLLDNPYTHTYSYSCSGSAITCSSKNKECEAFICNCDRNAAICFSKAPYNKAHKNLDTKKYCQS

CCOC(=O)c1ccc(N2C(=O)c3[nH]nc(-c4ccco4)c3C2c2ccc([N+](=O)[O-])cc2)cc1 (centres undefined)
AC50 [1]: 2.92 µM (active)
EC50 (Protein RecA): 56.2 µM (active)
IC50 [2]: 17 µM (inactive)
IC50 [3]: > 69.5 µM (inactive)

CCOC(=O)c1sc2nc3c(cc2c1N)COC(C)(CC)C3 (centres undefined)
EC50 [4]: > 67.5 µM (inactive)

CN(C)c1ccc(C(CNS(=O)(=O)c2ccc(F)c(F)c2)c2c[nH]c3ccccc23)cc1 (centres undefined)
IC50 [2]: > 7.72 µM (active)
IC50 [3]: > 69.5 µM (inactive)

O=C(Nc1cc(N2CCCCC2)ncn1)c1ccc(Cl)cc1
IC50 (Protein Wnt-3a): > 21.8 µM (inactive)

Clc1ccc(OCCSc2ncccn2)c(Br)c1
IC50 (Protein skinhead-1): 40.4 µM (active)
EC50 [4]: > 67.5 µM (inactive)

C[C@@H]1CN([C@H](C)CO)C(=O)c2cccc(NC(=O)c3ccncc3)c2O[C@H]1CN(C)C(=O)Nc1ccc(C(F)(F)F)cc1
AC50 (HEK293): 27.7 µM (active)
AC50 [5]: 27.7 µM (active)

CC(C)N1CCN(C2=C(Nc3ccc(Cl)cc3)C(=O)c3ccccc3C2=O)CC1
AC50 [6]: 10.5 µM (active)
AC50 [7]: 54.7 µM (active)
AC50 [8]: 2 µM (active)

O=C(Nc1cc(N2CCCCC2)ncn1)c1ccccc1F
IC50 (Protein Wnt-3a): < 0.0426 µM (active)

O=c1oc(-c2ccccc2)nc2sc3c(c12)CCC3
IC50 (Cysteine protease ATG4B): 5.65 µM (active)
IC50 (Phospholipase A2): 1.95 µM (active)
IC50 [9]: 9.39 µM (active)
AC50 (Caspase-6): 0.44 µM (active)
AC50 (Caspase-7): > 70 µM (inactive)
AC50 (Caspase-8): 43.9 µM (active)
AC50 (Caspase-3): 38.7 µM (active)

C/C=C/c1ccc([C@@H]2[C@@H](CO)N[C@@H]2CN(CC)C(=O)CN2CCOCC2)cc1
AC50 [10]: 0.431 µM (active)

— ChEMBL document CHEMBL1201862, “PubChem BioAssay data set” (2004)
